Reference: patent publication US11365195B2, “Atypical inhibitors of monoamine transporters; method of making; and use thereof” (THE UNITED STATES OF AMERICA, AS REPRESENTED BY THE …, priority 2017, dated 2022)
Like-named read-outs stand apart in the source and are kept apart here.

Key:
[1] = biological target: T1, DAT (Rattus norvegicus, UniProt P23977); experiment: DAT radioligand binding in rat striatum ([3H]-WIN35,428 competition); settings: for SERT/DAT: ratio of SERT Ki to DAT Ki
T1 construct: 100 μl of tissue preparation (1.5 mg of brain striatum membranes per well); tissue Bioreclamation IVT (Hicksville, N.Y.); host or cells: male Sprague-Dawley rat brain striatum membranes
T1 sequence (P23977 whole entry): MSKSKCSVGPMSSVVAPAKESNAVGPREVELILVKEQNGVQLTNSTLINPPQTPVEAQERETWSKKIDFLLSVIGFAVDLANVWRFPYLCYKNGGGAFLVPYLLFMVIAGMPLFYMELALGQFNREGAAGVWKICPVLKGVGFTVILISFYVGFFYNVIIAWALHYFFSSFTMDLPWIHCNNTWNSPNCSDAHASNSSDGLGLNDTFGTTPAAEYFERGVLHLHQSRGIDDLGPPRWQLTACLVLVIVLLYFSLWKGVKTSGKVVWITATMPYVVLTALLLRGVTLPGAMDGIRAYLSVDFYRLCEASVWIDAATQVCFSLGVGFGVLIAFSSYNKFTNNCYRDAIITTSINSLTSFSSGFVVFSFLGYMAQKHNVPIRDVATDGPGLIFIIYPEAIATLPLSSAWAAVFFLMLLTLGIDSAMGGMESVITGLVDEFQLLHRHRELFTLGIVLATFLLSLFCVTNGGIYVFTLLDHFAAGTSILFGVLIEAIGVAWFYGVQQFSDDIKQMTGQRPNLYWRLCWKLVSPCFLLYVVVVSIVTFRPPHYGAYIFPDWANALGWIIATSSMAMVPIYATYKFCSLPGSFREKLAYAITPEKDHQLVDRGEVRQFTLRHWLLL
Experimental: (§1) Binding affinities of the analogue compounds were evaluated at the DAT and SERT in rat brain membranes, and sigma-1 in guinea pig brain membranes according to the following protocols.
DAT Radioligand Binding in Rat Striatum
The tissue was centrifuged at 20,000 rpm for 10 min at 4° C. The pellet was suspended in cold buffer and centrifuged again using the same settings. The resulting pellet was resuspended in cold buffer at a concentration of 15 mg/mL OWW (original wet weight). On test day, all test compounds were freshly dissolved in 30% DMSO and 70% H2O to a stock concentration of 1 mM or 100 μM When necessary, to assist the solubilization of compounds, 10 μl of glacial acetic acid was added along with the DMSO (in place of 10 μl final H2O volume). Each test compound was then diluted into 10 half-log serial dilutions using 30% DMSO vehicle. […] Non-specific binding was determined using […] Indatraline and total binding was determined with 30% DMSO vehicle. The reaction was started with the addition of the tissue. […] The filters were washed 3 times with 3 mL (3×1 mL/well) of ice cold binding buffer. […] These analyses were performed using GraphPad Prism version 6.00 for Macintosh (GraphPad Software, San Diego, Calif.).

[2] = Phase I metabolic stability in rat liver microsomes; type: in vitro ADME; settings: for Phase I in Liver Microsomes, Negative Control: rat liver microsomes lacking NADPH; for Phase I in Liver Microsomes, Rat: with NADPH, 10 μM compound, 0.5 mg/mL microsomes; for stability to Phase I metabolism (in words): rat liver microsomes fortified with NADPH
Experimental: Methods: Phase I metabolic stability assays were conducted in rat liver microsomes. For phase I metabolism, the reactions were carried out with 100 mM potassium phosphate buffer, pH 7.4, in the presence of NADPH regenerating system (1.3 mM NADPH, 3.3 mM glucose 6-phosphate, 3.3 mM MgCl2, 0.4 U/mL glucose-6-phosphate dehydrogenase, […] sodium citrate). Reactions in triplicate were initiated by addition of the liver microsomes to the incubation mixture (compound final concentration was 10 μM; 0.5 mg/mL microsomes). Compound disappearance was monitored via LC/MS/MS. […] The total run time for each analyte was 5.0 min.

[3] = biological target: T2, σ1R (Cavia porcellus, UniProt Q60492); experiment: σ1R radioligand binding in guinea pig cortex ([3H]-(+)-Pentazocine competition); settings: for σ1/DAT: ratio of σ1 to DAT affinity values; for σ1/SERT: ratio of σ1 to SERT affinity values
T2 construct: tissue BioReclamation IVT (Hicksville, N.Y.); host or cells: male Hartley guinea pig brain cortex membranes
T2 sequence (Q60492 whole entry): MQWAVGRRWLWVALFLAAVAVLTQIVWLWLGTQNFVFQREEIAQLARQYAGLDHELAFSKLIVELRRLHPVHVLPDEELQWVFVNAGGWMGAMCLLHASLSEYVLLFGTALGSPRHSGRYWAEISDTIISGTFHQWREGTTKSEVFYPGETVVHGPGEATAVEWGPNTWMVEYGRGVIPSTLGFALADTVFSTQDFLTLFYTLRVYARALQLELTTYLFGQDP
Experimental: as §1
σ1R Radioligand Binding in Guinea Pig Cortex
Male Hartley guinea pig cortices were dissected from freshly harvested brains (shipped cold in PBS buffer from BioReclamation IVT (Hicksville, N.Y.)) and frozen at −80° C. for future use. […] The supernatant was collected in a clean tube and the pellet re-suspended in 10 ml of cold buffer and centrifuged again (˜1,200 rpm) for 10 min at 4° C. […] The final pellet was suspended in ice-cold binding buffer at 50 mg/ml concentration. […] All test compounds were freshly dissolved in 30% DMSO and 70% H2O to a stock concentration of 1 mM or 100 μM. When necessary, to assist the solubilization of compounds, 10 μl of glacial acetic acid was added along with the DMSO (in place of 10 μl final H2O volume). Each test compound was then diluted into 10 half-log serial dilutions using 30% DMSO as the vehicle. […] Nonspecific binding was determined using either 10 μM PRE084 or 10 μM (+)-Pentazocine and total binding was determined with 30% DMSO vehicle (3% DMSO final concentration). […] The filters were washed 3 times with 3 ml (3×1 ml/well) of ice cold binding buffer.

[4] = biological target: T3, SERT (Rattus norvegicus, UniProt P31652); experiment: SERT radioligand binding in rat midbrain ([3H]-Citalopram competition); settings: rat midbrain/brain stem membranes, [3H]-Citalopram, mean ± SEM; read-out: SERT (rat mid-brain-stem) Ki ± SEM
T3 construct: 100 μl of tissue preparation (2 mg of brain stem membranes per well); tissue Bioreclamation IVT (Hicksville, N.Y.); host or cells: male Sprague-Dawley rat brain stem membranes
T3 sequence (P31652 whole entry): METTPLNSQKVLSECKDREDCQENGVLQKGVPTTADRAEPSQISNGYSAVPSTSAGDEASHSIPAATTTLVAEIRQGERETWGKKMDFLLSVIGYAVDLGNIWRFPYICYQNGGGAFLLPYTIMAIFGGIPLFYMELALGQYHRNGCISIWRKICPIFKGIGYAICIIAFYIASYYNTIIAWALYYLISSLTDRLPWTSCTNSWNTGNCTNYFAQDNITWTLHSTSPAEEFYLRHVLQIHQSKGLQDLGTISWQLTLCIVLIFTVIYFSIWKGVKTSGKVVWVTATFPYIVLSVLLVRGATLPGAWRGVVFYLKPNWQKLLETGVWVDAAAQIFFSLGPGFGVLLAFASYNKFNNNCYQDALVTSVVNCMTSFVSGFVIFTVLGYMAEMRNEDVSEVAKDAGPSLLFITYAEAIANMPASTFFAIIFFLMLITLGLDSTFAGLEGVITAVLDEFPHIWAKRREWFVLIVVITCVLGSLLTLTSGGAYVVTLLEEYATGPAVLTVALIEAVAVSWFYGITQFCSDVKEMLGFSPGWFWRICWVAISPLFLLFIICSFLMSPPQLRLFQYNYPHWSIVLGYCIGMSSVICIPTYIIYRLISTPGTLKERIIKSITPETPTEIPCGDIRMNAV
Experimental: as §1
SERT Radioligand Binding in Rat Midbrain
The tissue was centrifuged at 20,000 rpm for 10 min at 4° C. The pellet was suspended in cold buffer and centrifuged again using the same settings. The resulting pellet was resuspended in cold buffer at a concentration of 20 mg/mL OWW (original wet weight). On test day, all test compounds were freshly dissolved in 30% DMSO and 70% H2O to a stock concentration of 1 mM or 100 μM. When necessary, to assist the solubilization of compounds, 10 μl of glacial acetic acid was added along with the DMSO (in place of 10 μl final H2O volume). Each test compound was then diluted into 10 half-log serial dilutions using 30% DMSO vehicle. […] Non-specific binding was determined using […] Fluoxetine HCl and total binding was determined with 30% DMSO vehicle. The reaction was started with the addition of the tissue. All compound dilutions were tested in triplicate and the reaction incubated for 60 min at room temperature. The reaction was terminated by filtration through Perkin Elmer Uni-Filter-96 GF/B, presoaked for 60 min in 0.3% polyethylenimine, using a Brandel 96-Well Plates Harvester Manifold (Brandel Instruments, Gaithersburg, Md.). The filters were washed 3 times with 3 mL (3×1 mL/well) of ice cold binding buffer. […] These analyses were performed using GraphPad Prism version 6.00 for Macintosh (GraphPad Software, San Diego, Calif.).

[5] = rat striatum membranes, [3H]-WIN35,428, mean ± SEM, read-out: DAT (rat striatum) Ki ± SEM

Row | SMILES | Ki [1, 5] [nM] | SERT/DAT [1] | Phase I in Liver Microsomes, Negative Control ([2]; 0 min) [%] | Phase I in Liver Microsomes, Rat ([2]; 0 min) [%] | Phase I in Liver Microsomes, Negative Control ([2]; 30 min) [%] | Phase I in Liver Microsomes, Rat ([2]; 30 min) [%] | Phase I in Liver Microsomes, Negative Control ([2]; 60 min) [%] | Phase I in Liver Microsomes, Rat ([2]; 60 min) [%] | Kd [3] [nM] | σ1/DAT [3] | σ1/SERT [3] | Ki [4] [nM] | stability to Phase I metabolism (in words) [2] | Ki [1] [nM]
1 | Cl.O=C(c1ccc(F)cc1)N1CCC(NCC[S+]([O-])C(c2ccc(F)cc2)c2ccc(F)cc2)CC1 (centres unmarked) [JBG02-056, (4-((2-((Bis(4-fluorophenyl)methyl)sulfinyl)ethyl)amino)piperidin-1-yl)(4-fluorophenyl)methanone] | 77.2 ± 4.54 | 59.84 | 100 | 100 | 97 | 100 | 91 | 79 | 1320 ± 36.5 | 17.10 | 0.29 | 4620 ± 379 | – | –
2 | [O-][S+](CCNC1CCN(CC(O)Cc2ccccc2)CC1)C(c1ccc(F)cc1)c1ccc(F)cc1 (centres unmarked) [JBG02-057, 1-(4-((2-((Bis(4-fluorophenyl)methyl)sulfinyl)ethyl)amino)piperidin-1-yl)-3-phenylpropan-2-ol] | 91.8 ± 21.3 | 6.48 | 100 | 100 | 102 | 50 | 100 | 22 | 346 ± 27.1 | 3.77 | 0.58 | 595 ± 54.1 | susceptibility | –
3 | CC(O)CN1[C@H](C)CN(CCSC(c2ccc(F)cc2)c2ccc(F)cc2)C[C@@H]1C (stereo partly drawn) [RDS03-094, 1-((2S,6R)-4-(2-((Bis(4-fluorophenyl)methyl)thio)ethyl)-2,6-dimethylpiperazin-1-yl)propan-2-ol] | – | 629.79 | 100 | 100 | 106 | 99 | 109 | 68 | – | 0.24 | 0.00038 | 14800 ± 2260 | moderate stability | 23.5 ± 2.12
4 | C[C@@H]1CN(CCSC(c2ccc(F)cc2)c2ccc(F)cc2)C[C@H](C)N1CC(O)Cc1ccccc1 (stereo partly drawn) [RDS03-095, 1-((2S,6R)-4-(2-((bis(4-fluorophenyl)methyl)thio)ethyl)-2,6-dimethylpiperazin-1-yl)-3-phenylpropan-2-ol] | 2 ± 0.15 | 800.00 | 100 | 100 | 117 | 42 | 125 | 10 | – | 7.60 | 0.010 | 1600 ± 152 | susceptibility | –
5 | OC(CN1CCC2(CCN(CCSC(c3ccc(F)cc3)c3ccc(F)cc3)CC2)C1)c1ccccc1 (centres unmarked) [RDS04-002] | 125 ± 9.7 | 0.99 | 100 | 100 | 128 | 100 | 125 | 100 | – | 0.36 | 0.37 | 124 ± 38.2 | – | –
6 | CC(O)CN1[C@H](C)CN(CC[S+]([O-])C(c2ccc(F)cc2)c2ccc(F)cc2)C[C@@H]1C (stereo partly drawn) [RDS04-010, 1-((2S,6R)-4-(2-((Bis(4-fluorophenyl)methyl)sulfinyl)ethyl)-2,6-dimethylpiperazin-1-yl)propan-2-ol] | 245 ± 49.7 | 77.55 | 100 | 100 | 130 | 115 | 108 | 95 | – | 1.29 | 0.017 | 19000 ± 2550 | – | –
7 | C[C@@H]1CN(CC[S+]([O-])C(c2ccc(F)cc2)c2ccc(F)cc2)C[C@H](C)N1CC(O)Cc1ccccc1 (stereo partly drawn) [RDS04-011, 1-((2S,6R)-4-(2-((Bis(4-fluorophenyl)methyl)sulfinyl)ethyl)-2,6-dimethylpiperazin-1-yl)-3-phenylpropan-2-ol] | 6.78 ± 2.97 | 377.58 | 100 | 100 | 132 | 58 | 106 | 26 | – | 11.12 | 0.029 | 2560 ± 181 | susceptibility | –
